For 33 compounds, IC50 results are on record in patent US8710043B2, “TRPM8 antagonists and their use in treatments” (Amgen Inc., priority 2011, dated 2014).

Molecules are shown by their SMILES.

The target in the assay is T1, human TRPM8 (Homo sapiens, UniProt Q7Z2W7).
T1 construct: expressed in transfected cells; host or cells: Chinese hamster ovary (CHO) cells, T-REx tetracycline-inducible system, co-transfected with aequorin
Put plainly: Luminescence readout assay for measuring intracellular calcium, icilin activation. It counts as cell-based. The conditions noted are these: CHO cells expressing human TRPM8, aequorin luminescence, 1 μM icilin activation; read-out: hTRPM8 IC50. Put shortly: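 The read-out was luminescence reporting intracellular calcium, recorded by a CCD-based luminometer. Compounds were preincubated for 2.5 min before agonist challenge with 1 μM icilin. Human TRPM8 was expressed in a stable T-REx CHO line, induced with 0.5 μg/mL tetracycline the day before.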

T1 sequence (Q7Z2W7 whole entry): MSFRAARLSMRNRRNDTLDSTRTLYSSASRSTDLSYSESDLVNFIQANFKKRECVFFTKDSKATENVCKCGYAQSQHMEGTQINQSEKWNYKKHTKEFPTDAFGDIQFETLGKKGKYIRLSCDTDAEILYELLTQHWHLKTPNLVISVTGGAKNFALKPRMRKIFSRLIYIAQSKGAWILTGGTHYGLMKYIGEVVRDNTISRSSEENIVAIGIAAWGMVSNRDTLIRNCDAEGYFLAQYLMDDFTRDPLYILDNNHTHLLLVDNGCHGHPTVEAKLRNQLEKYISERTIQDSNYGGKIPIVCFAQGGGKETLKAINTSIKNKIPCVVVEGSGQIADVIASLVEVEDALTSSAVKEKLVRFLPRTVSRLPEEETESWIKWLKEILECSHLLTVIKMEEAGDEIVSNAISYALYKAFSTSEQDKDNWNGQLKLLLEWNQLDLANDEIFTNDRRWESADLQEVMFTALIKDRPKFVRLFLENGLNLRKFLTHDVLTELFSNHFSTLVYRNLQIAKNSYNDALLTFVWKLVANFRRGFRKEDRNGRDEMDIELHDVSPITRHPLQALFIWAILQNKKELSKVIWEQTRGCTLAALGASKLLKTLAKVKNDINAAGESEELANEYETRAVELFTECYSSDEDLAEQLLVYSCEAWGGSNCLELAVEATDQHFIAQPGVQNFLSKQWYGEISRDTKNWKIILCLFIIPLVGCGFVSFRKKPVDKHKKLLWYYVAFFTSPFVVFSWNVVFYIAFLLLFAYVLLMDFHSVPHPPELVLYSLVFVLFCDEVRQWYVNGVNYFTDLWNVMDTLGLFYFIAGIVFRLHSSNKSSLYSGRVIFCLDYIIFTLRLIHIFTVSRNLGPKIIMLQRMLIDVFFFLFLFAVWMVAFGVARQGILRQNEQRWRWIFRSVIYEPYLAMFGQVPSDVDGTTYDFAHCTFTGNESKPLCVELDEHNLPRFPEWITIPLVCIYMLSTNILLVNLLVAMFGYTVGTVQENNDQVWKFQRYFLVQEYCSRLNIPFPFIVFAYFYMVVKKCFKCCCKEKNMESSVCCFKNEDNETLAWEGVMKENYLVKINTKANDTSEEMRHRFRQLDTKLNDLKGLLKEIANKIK

Consider `Cc1cccnc1[C@@H](NC(=O)c1ccc2[nH]c(=O)oc2c1)c1ccc(C(F)(F)F)cc1` [Example 313, (S)-N-((3-methylpyridin-2-yl)(4-(trifluoromethyl)phenyl)methyl)-2-oxo-2,3-dihydrobenzo[d]oxazole-6-carboxamide], for which the IC50 turned out to be 0.0259 µM.

Regarding `O=C(N[C@@H](c1ccc(C(F)(F)F)cc1)c1ncccc1C(F)(F)F)c1cn[nH]c1` [Example 143, (S)-N-((4-(trifluoromethyl)phenyl)(3-(trifluoromethyl)pyridin-2-yl)methyl)-1H-pyrazole-4-carboxamide], the IC50 worked out at 0.0874 µM.

For `O=C(N[C@@H](c1ccc(C(F)(F)F)cc1)c1ncccc1C(F)(F)F)c1cccc(C(F)(F)F)c1` [Example 211, (S)-3-(trifluoromethyl)-N-((4-(trifluoromethyl)phenyl)(3-(trifluoromethyl)pyridin-2-yl)methyl)benzamide], the IC50 was 0.115 µM.

As for `CCNc1ccc(C(=O)N[C@@H](c2ccc(C(F)(F)F)cc2)c2ncccc2C(F)(F)F)cn1` [Example 263, (S)-6-(Ethylamino)-N-((4-(trifluoromethyl)phenyl)(3-(trifluoromethyl)pyridin-2-yl)methyl)nicotinamide], the IC50 came out at 0.133 µM.

In the case of `COC(=O)c1ccc(C(=O)N[C@@H](c2ccc(OC(F)(F)F)c(F)c2)c2ccccn2)nc1` [Example 406, (S)-methyl 6-(((3-fluoro-4-(trifluoromethoxy)phenyl)(pyridin-2-yl)methyl)carbamoyl)nicotinate], the 50% inhibitory concentration (IC50) is 0.241 µM.

Turning to `COc1ccc(C(=O)N[C@@H](c2ccc(F)cc2)c2ncccc2C(F)(F)F)cn1` [Example 124, (S)-N-((4-fluorophenyl)(3-(trifluoromethyl)pyridin-2-yl)methyl)-6-methoxynicotinamide], the IC50 turned out to be 0.19 µM.

For the compound `O=C(N[C@@H](c1ccc(C(F)(F)F)cc1)c1ncccc1C(F)(F)F)[C@@H]1CCCO1` [Example 234, (S)-N-((S)-(4-(trifluoromethyl)phenyl)(3-(trifluoromethyl)pyridin-2-yl)methyl)THF-2-carboxamide], the IC50 was 0.169 µM.

Take `O=C(N[C@@H](c1ccc(C(F)(F)F)cc1)c1ncccc1C(F)(F)F)c1cccc(Cl)c1` [Example 208, (S)-3-chloro-N-((4-(trifluoromethyl)phenyl)(3-(trifluoromethyl)pyridin-2-yl)methyl)benzamide]: the IC50 was found to be 0.0417 µM.

For `O=C1COc2c(cccc2C(=O)N[C@@H](c2ccc(C(F)(F)F)cc2)c2ncccc2F)N1` [Example 77], the IC50 stood at 0.053 µM.

Turning to `O=C(N[C@@H](c1ccc(C(F)(F)F)cc1)c1ncccc1F)c1ccc(=O)n(C2COC2)c1` [Example 305, (S)-N-((3-fluoropyridin-2-yl)(4-(trifluoromethyl)phenyl)methyl)-1-(oxetan-3-yl)-6-oxo-1,6-dihydropyridine-3-carboxamide], the 50% inhibitory concentration (IC50) is 0.0296 µM.

Take `O=C(N[C@@H](c1ccc(C(F)(F)F)cc1)c1ccccn1)c1ccc2oc(=O)[nH]c2c1` [Example 361, (S)-2-oxo-N-(pyridin-2-yl(4-(trifluoromethyl)phenyl)methyl)-2,3-dihydrobenzo[d]oxazole-5-carboxamide]: the IC50 amounted to 0.0058 µM.

Consider `Cn1cc(C(=O)N[C@@H](c2ccc(Cl)c(Cl)c2)c2ncccc2F)ccc1=O` [Example 251, (S)-N-((3,4-dichlorophenyl)(3-fluoropyridin-2-yl)methyl)-1-methyl-6-oxo-1,6-dihydropyridine-3-carboxamide 2,2,2-trifluoroacetate], for which the IC50 was determined as 0.0193 µM.

Consider `O=C(N[C@@H](c1ccc(C(F)(F)F)cc1)c1ncccc1C(F)(F)F)c1ccc2nnnn2c1` [Example 311, (S)-N-((4-(trifluoromethyl)phenyl)(3-(trifluoromethyl)pyridin-2-yl)methyl)tetrazolo[1,5-a]pyridine-6-carboxamide], for which the 50% inhibitory concentration (IC50) came out at 0.0278 µM.

`O=C(N[C@@H](c1cnc2cccc(Cl)c2c1)c1ncccc1C(F)(F)F)c1ccc2cccnc2c1` [Example 9, (S)-N-((5-chloroquinolin-3-yl)(3-(trifluoromethyl)pyridin-2-yl)methyl)quinoline-7-carboxamide]: the IC50 turned out to be 0.146 µM.

Consider `O=C(N[C@@H](c1ccc(C(F)(F)F)c(F)c1)c1ncccc1C(F)(F)F)c1ccc2ncccc2c1` [Example 130, (S)-N-((3-fluoro-4-(trifluoromethyl)phenyl)(3-(trifluoromethyl)pyridin-2-yl)methyl)quinoline-6-carboxamide bis (2,2,2-trifluoroacetate)], for which the IC50 worked out at 0.0247 µM.

As for `O=C(N[C@@H](c1ccc(C(F)(F)F)cc1)c1ncccc1C(F)(F)F)c1cnc2ccccc2c1` [Example 230, (S)-N-((4-(trifluoromethyl)phenyl)(3-(trifluoromethyl)pyridin-2-yl)methyl)quinoline-3-carboxamide], the IC50 worked out at 0.0837 µM.

`N#Cc1cccnc1[C@@H](NC(=O)c1ccc2cccnc2c1)c1ccc(C(F)(F)F)cc1` [Example 278, (S)—N-((3-Cyanopyridin-2-yl)(4-(trifluoromethyl)phenyl)-methyl)quinoline-7-carboxamide]: the IC50 came out at 0.317 µM.

On to `Cc1cc(F)cc([C@H](NC(=O)c2ccc(=O)[nH]c2)c2ncccc2F)c1` [Example 325, (S)-N-((3-fluoro-5-methylphenyl)(3-fluoropyridin-2-yl)methyl)-6-oxo-1,6-dihydropyridine-3-carboxamide], for which the concentration for half-maximal inhibition (IC50) came to 0.644 µM.

On to `O=C(N[C@@H](c1ccc(C(F)(F)F)cc1)c1ncccc1C(F)(F)F)c1ccc(Br)cn1` [Example 205, (S)-5-bromo-N-((4-(trifluoromethyl)phenyl)(3-(trifluoromethyl)pyridin-2-yl)methyl)picolinamide], for which the IC50 is 0.14 µM.

In the case of `O=C(N[C@@H](c1ccc(OC(F)(F)F)cc1)c1ncccc1F)c1ccn2ccnc2c1` [Example 88, (S)-N-((3-fluoropyridin-2-yl)(4-(trifluoromethoxy)phenyl)methyl)imidazo[1,2-a]pyridine-7-carboxamide], the IC50 stood at 0.0121 µM.

On to `O=C(N[C@@H](c1ccc(OC(F)(F)F)c(F)c1)c1ncccc1F)c1cc2n(n1)CCCO2` [Example 355, (S)-N-((3-fluoro-4-(trifluoromethoxy)phenyl)(3-fluoropyridin-2-yl)methyl)-6,7-dihydro-5H-pyrazolo[5,1-b][1,3]oxazine-2-carboxamide], for which the IC50 amounted to 0.0385 µM.

Take `O=C(N[C@@H](c1ccc(C(F)(F)F)cc1)c1ncccc1F)c1cccnc1` [Example 203, (S)-N-((3-fluoropyridin-2-yl)(4-(trifluoromethyl)phenyl)methyl)nicotinamide]: the IC50 is 0.135 µM.

Consider `COc1ccc([C@H](NC(=O)c2ccc(=O)[nH]c2)c2ncccc2F)cc1F` [Example 336, (S)-N-((3-fluoro-4-methoxyphenyl)(3-fluoropyridin-2-yl)methyl)-6-oxo-1,6-dihydropyridine-3-carboxamide], for which the IC50 was determined as 0.136 µM.

`Cn1cc(C(=O)N[C@@H](c2ccc(OC(F)(F)F)cc2)c2ncccc2F)ccc1=O` [Example 252, (S)-N-((3-fluoropyridin-2-yl)(4-(trifluoromethoxy)phenyl)methyl)-1-methyl-6-oxo-1,6-dihydropyridine-3-carboxamide 2,2,2-trifluoroacetate]: the IC50 was 0.0247 µM.

As to `O=C(N[C@@H](c1ccc(C(F)(F)F)cc1)c1ncccc1F)c1c[nH]c(=O)cn1` [Example 319, (S)-N-((3-fluoropyridin-2-yl)(4-(trifluoromethyl)phenyl)methyl)-5-oxo-4,5-dihydropyrazine-2-carboxamide], the half-inhibitory concentration (IC50) is 0.132 µM.

On to `CS(=O)(=O)c1cccc(C(=O)N[C@@H](c2ccc(C(F)(F)F)cc2)c2ncccc2F)c1` [Example 216, (S)-N-((3-fluoropyridin-2-yl)(4-(trifluoromethyl)phenyl)methyl)-3-(methylsulfonyl)benzamide], for which the IC50 turned out to be 0.143 µM.

`O=C(N[C@@H](c1ccc(OC(F)(F)F)cc1)c1ncccc1F)c1ccc(-c2nc(=O)o[nH]2)cc1` [Example 316, (S)-N-((3-fluoropyridin-2-yl)(4-(trifluoromethoxy)phenyl)methyl)-4-(5-oxo-2,5-dihydro-1,2,4-oxadiazol-3-yl)benzamide]: the IC50 is 0.0314 µM.

`O=C(N[C@@H](c1ccc(C(F)(F)F)cc1)c1ncccc1F)c1ccc(O)cn1` [Example 173, (S)-N-((3-fluoropyridin-2-yl)(4-(trifluoromethyl)phenyl)methyl)-5-hydroxypicolinamide]: the IC50 worked out at 0.0153 µM.

As for `N#Cc1ccc(C(=O)N[C@@H](c2ccc(C(F)(F)F)cc2)c2ncccc2C(F)(F)F)cn1` [Example 206, (S)-6-cyano-N-((4-(trifluoromethyl)phenyl)(3-(trifluoromethyl)pyridin-2-yl)methyl)nicotinamide], the IC50 came to 0.0675 µM.

For the compound `O=C(N[C@@H](c1ccc(F)cc1)c1ncccc1F)c1ccc(=O)[nH]c1` [Example 340, (S)-N-((4-fluorophenyl)(3-fluoropyridin-2-yl)methyl)-6-oxo-1,6-dihydropyridine-3-carboxamide], the IC50 was 0.808 µM.

For `CNS(=O)(=O)c1ccc(C(=O)N[C@@H](c2ccc(C(F)(F)F)cc2)c2ncccc2F)cc1` [Example 74, (S)-N-((3-fluoropyridin-2-yl)(4-(trifluoromethyl)phenyl)methyl)-4-(N-methylsulfamoyl)benzamide], the IC50 came out at 0.0853 µM.

On to `Cn1cc(C(=O)N[C@@H](c2ccc(Cl)c(F)c2)c2ncccc2F)ccc1=O` [Example 345, (S)-N-((4-chloro-3-fluorophenyl)(3-fluoropyridin-2-yl)methyl)-1-methyl-6-oxo-1,6-dihydropyridine-3-carboxamide], for which the IC50 worked out at 0.102 µM.

Regarding `CCc1ccc([C@H](NC(=O)c2ccc3cccnc3c2)c2ncccc2C(F)(F)F)cc1` [Example 115, (S)-N-((4-ethylphenyl)(3-(trifluoromethyl)pyridin-2-yl)methyl)quinoline-7-carboxamide], the IC50 is 0.0562 µM.
